# In PubChem BioAssay (NCI):
#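 48-hour exposure; five concentrations; linearly interpolated endpoints. TGI denotes the concentration required for complete inhibition of growth.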
# Columns and labels:
# Test in all cases: growth of human tumour cells (NCI), 48 h
# SW-620 colon = system: SW-620 colon
# UACC-257 melanoma = system: UACC-257 melanoma
# HL-60(TB) leukemia = system: HL-60(TB) leukemia
# K-562 leukemia = system: K-562 leukemia
# UACC-62 melanoma = system: UACC-62 melanoma
# MOLT-4 leukemia = system: MOLT-4 leukemia
# OVCAR-5 ovarian = system: OVCAR-5 ovarian
# HCT-116 colon = system: HCT-116 colon
# COLO 205 colon = system: COLO 205 colon
# MALME-3M melanoma = system: MALME-3M melanoma
# 786-0 renal = system: 786-0 renal
# HOP-92 NSCLC = system: HOP-92 NSCLC
# T-47D breast = system: T-47D breast
# SNB-19 CNS = system: SNB-19 CNS
# SK-OV-3 ovarian = system: SK-OV-3 ovarian
# SR leukemia = system: SR leukemia
SMILES,TGI (SW-620 colon) [µM],TGI (UACC-257 melanoma) [µM],TGI (HL-60(TB) leukemia) [µM],TGI (K-562 leukemia) [µM],TGI (UACC-62 melanoma) [µM],TGI (MOLT-4 leukemia) [µM],TGI (OVCAR-5 ovarian) [µM],TGI (HCT-116 colon) [µM],TGI (COLO 205 colon) [µM],TGI (MALME-3M melanoma) [µM],TGI (786-0 renal) [µM],TGI (HOP-92 NSCLC) [µM],TGI (T-47D breast) [µM],TGI (SNB-19 CNS) [µM],TGI (SK-OV-3 ovarian) [µM],TGI (SR leukemia) [µM]
N#Cc1cc(-c2nc3c(F)cccc3s2)ccc1N,> 100,> 100,> 100,> 100,> 100,> 100,> 100,> 100,> 100,> 100,> 100,> 100,> 100,> 100,> 100,–
Cc1c2c(Cl)c3c(c(Cl)c2c(C)c2c(Cl)c4c(c(Cl)c12)C(c1ccccc1)(c1ccccc1)C4(c1ccccc1)c1ccccc1)C(c1ccccc1)(c1ccccc1)C3(c1ccccc1)c1ccccc1,> 100,> 100,–,> 100,> 100,> 100,> 100,> 100,> 100,> 100,> 100,> 100,> 100,> 100,> 100,> 100
C[N+]1(Cc2ccc(Cl)c(Cl)c2)CCCC1C1CCCN(Cc2ccc(Cl)c(Cl)c2)C1 (configuration not stated),> 100,> 100,–,> 100,> 100,> 100,> 100,> 100,> 100,> 100,> 100,> 100,> 100,> 100,> 100,> 100
CCCCN(Cc1ccccc1)C(=NC#N)N(Cc1ccccc1)Cc1ccccc1,> 100,50.7,> 100,> 100,74.7,> 100,> 100,31.8,32.2,79.4,56.2,53.1,> 100,> 100,> 96.1,–
COCn1cnc2c(=O)n(-c3ccc(OC)cc3)c(=S)n(-c3ccc(OC)cc3)c21,> 100,> 100,> 100,> 100,> 100,> 100,> 100,> 100,> 100,–,> 100,–,> 100,–,> 100,> 100
COc1cccc(N2C(=O)/C(=C\c3ccccc3)SC2c2cc(OC)c(OC)c(OC)c2)c1 (configuration not stated),–,> 100,> 100,> 100,> 100,> 100,> 100,> 100,> 100,–,> 100,> 100,94.3,> 100,> 100,> 100
COc1ccc2c(c1)-c1[nH]c3ccc(OC)cc3c1CC2,49.4,32.4,–,39.6,28.6,54.4,28.6,32.4,37.4,28.7,34,36.2,36.6,30.1,33.8,53.2
C=CCN1C(=O)/C(=C/c2ccc(C)cc2)NC1=S,> 100,> 100,48.9,> 100,> 100,> 100,> 100,> 100,> 100,–,> 100,> 100,> 100,> 100,> 100,> 100
